Laboratory results taken from PubChem BioAssay AID330 (DTP/NCI, 2004).
Several values for one entry are separate records, joined by “and”; a condition that tells them apart may be missing. Equal values may be shown once. Inconclusive results and toxic doses are left out. Rule for the calls: active = survival T/C of 150% or more; inactive = T/C below 125% in these data. Peptide text beside a SMILES is read from it.

System: P388 leukemia ip, CD2F1 mice, survival T/C
Assay: NCI In Vivo Anticancer Drug Screen. Data for tumor model P388 Leukemia (intraperitoneal) in CD2F1 (CDF1) mice
Conditions: endpoint: median survival time, higher = longer survival
How it was run: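 Mice carrying the transplanted tumor received test compound or vehicle. Survival was recorded in each group, and the value is the treated-group measurement divided by that of the vehicle-treated control group.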

[1] = dose: 50.0 mg/kg/injection, schedule: Q01DX009 (ip), vehicle: Klucel (hydroxypropylcellulose) (HPC)
[2] = dose: 100.0 mg/kg/injection, schedule: Q01DX009 (ip), vehicle: Klucel (hydroxypropylcellulose) (HPC)
[3] = dose: 200.0 mg/kg/injection, schedule: Q01DX009 (ip), vehicle: Klucel (hydroxypropylcellulose) (HPC)
[4] = dose: 25.0 mg/kg/injection, schedule: Q01DX005 (ip), vehicle: Klucel (hydroxypropylcellulose) (HPC)
[5] = dose: 50.0 mg/kg/injection, schedule: Q01DX005 (ip), vehicle: Klucel (hydroxypropylcellulose) (HPC)
[6] = dose: 100.0 mg/kg/injection, schedule: Q01DX005 (ip), vehicle: Klucel (hydroxypropylcellulose) (HPC)
[7] = dose: 200.0 mg/kg/injection, schedule: Q01DX005 (ip), vehicle: Klucel (hydroxypropylcellulose) (HPC)
[8] = dose: 50.0 mg/kg/injection, schedule: Q01DX009 (ip), vehicle: saline with Tween-80
[9] = dose: 100.0 mg/kg/injection, schedule: Q01DX009 (ip), vehicle: saline with Tween-80
[10] = dose: 200.0 mg/kg/injection, schedule: Q01DX009 (ip), vehicle: saline with Tween-80
[11] = dose: 100.0 mg/kg/injection, schedule: Q01DX005 (ip), vehicle: saline with Tween-80
[12] = dose: 200.0 mg/kg/injection, schedule: Q01DX005 (ip), vehicle: saline with Tween-80
[13] = dose: 25.0 mg/kg/injection, schedule: Q01DX009 (ip), vehicle: saline with Tween-80
[14] = dose: 60.0 mg/kg/injection, schedule: Q01DX005 (ip), vehicle: saline with Tween-80
[15] = dose: 120.0 mg/kg/injection, schedule: Q01DX005 (ip), vehicle: saline with Tween-80
[16] = dose: 240.0 mg/kg/injection, schedule: Q01DX005 (ip), vehicle: saline with Tween-80

Measured: T/C

S=c1[nH]c2ccccc2n1CCc1ccncc1
inactive: dose: 25.0 mg/kg/injection, schedule: Q01DX007 (ip), vehicle: Klucel (hydroxypropylcellulose) (HPC) 104 % of control | dose: 25.0 mg/kg/injection, schedule: Q01DX008 (ip), vehicle: Klucel (hydroxypropylcellulose) (HPC) 103 % of control | dose: 50.0 mg/kg/injection, schedule: Q01DX007 (ip), vehicle: Klucel (hydroxypropylcellulose) (HPC) 104 % of control | dose: 50.0 mg/kg/injection, schedule: Q01DX008 (ip), vehicle: Klucel (hydroxypropylcellulose) (HPC) 106 % of control | [1] 93 % of control | dose: 100.0 mg/kg/injection, schedule: Q01DX007 (ip), vehicle: Klucel (hydroxypropylcellulose) (HPC) 99 % of control | dose: 100.0 mg/kg/injection, schedule: Q01DX008 (ip), vehicle: Klucel (hydroxypropylcellulose) (HPC) 100 % of control | [2] 94 % of control | dose: 200.0 mg/kg/injection, schedule: Q01DX007 (ip), vehicle: Klucel (hydroxypropylcellulose) (HPC) 106 % of control | dose: 200.0 mg/kg/injection, schedule: Q01DX008 (ip), vehicle: Klucel (hydroxypropylcellulose) (HPC) 106 % of control | [3] 94 % of control

CC(CCc1cccc2ccccc12)(C(=O)O)C(=O)O
inactive: dose: 50.0 mg/kg/injection, schedule: Q01DX009 (ip), vehicle: saline sonified 90 % of control | dose: 100.0 mg/kg/injection, schedule: Q01DX009 (ip), vehicle: saline sonified 100 % of control | dose: 200.0 mg/kg/injection, schedule: Q01DX009 (ip), vehicle: saline sonified 90 % of control

CCCCCCCCCCN=Cc1c(O)c(O)c(CCC)c2cc(C)c(-c3c(C)cc4c(CCC)c(O)c(O)c(C=NCCCCCCCCCC)c4c3O)c(O)c12
inactive: [4] 100 % of control | [5] 95 % of control | [6] 98 % of control | [7] 95 % of control

N#CCCSc1nnc(N)s1
inactive: [1] 108 % of control | [2] 103 % of control | [3] 104 % of control | dose: 400.0 mg/kg/injection, schedule: Q01DX009 (ip), vehicle: Klucel (hydroxypropylcellulose) (HPC) 100 % of control

O=C(Nc1ccccc1)Nc1nccs1
inactive: [8] 92 % of control | [9] 96 % of control | [10] 93 % of control

O=C1CC=C2C3CC4N(CCC45c4ccccc4N1C25)C/C3=C\CBr (configuration not stated)
inactive: dose: 1.87 mg/kg/injection, schedule: Q01DX005 (ip), vehicle: Klucel (hydroxypropylcellulose) (HPC) 105 % of control | dose: 3.75 mg/kg/injection, schedule: Q01DX005 (ip), vehicle: Klucel (hydroxypropylcellulose) (HPC) 103 % of control | dose: 7.5 mg/kg/injection, schedule: Q01DX005 (ip), vehicle: Klucel (hydroxypropylcellulose) (HPC) 101 % of control and 105 % of control

CCCCCCCCCNCC(O)c1cc2c(c3ccccc13)CCCC2 (configuration not stated)
inactive: dose: 6.25 mg/kg/injection, schedule: Q01DX005 (ip), vehicle: Klucel (hydroxypropylcellulose) (HPC) 92 % of control | dose: 12.5 mg/kg/injection, schedule: Q01DX005 (ip), vehicle: Klucel (hydroxypropylcellulose) (HPC) 90 % of control | [4] 99 % of control

C[C@@H](O)[C@H](NSc1ccccc1[N+](=O)[O-])C(=O)NCCc1nc(-c2nc(C(=O)NCCCBr)cs2)cs1
inactive: dose: 6.25 mg/kg/injection, schedule: Q01DX005 (ip), vehicle: saline with Tween-80 93 % of control | dose: 12.5 mg/kg/injection, schedule: Q01DX005 (ip), vehicle: saline with Tween-80 95 % of control | dose: 25.0 mg/kg/injection, schedule: Q01DX005 (ip), vehicle: saline with Tween-80 90 % of control | [11] 97 % of control | [12] 86 % of control

CC(C)CC(NC(=O)C(N)CC(=O)O)C(=O)O (stereo not drawn) (H-Asp-Leu-OH; configuration not given here)
inactive: [5] 100 % of control | [6] 98 % of control | [7] 99 % of control

C1=C(CC[Si]23OCCN(CCO2)CCO3)CCCC1
inactive: [5] 110 % of control | [6] 103 % of control | [7] 103 % of control

O=NN(CCCl)C(=O)Nc1ccc(I)cc1
active: dose: 3.0 mg/kg/injection, schedule: Q01DX009 (ip), vehicle: saline with Tween-80 154 % of control | dose: 4.5 mg/kg/injection, schedule: Q01DX009 (ip), vehicle: saline with Tween-80 163 % of control | dose: 6.25 mg/kg/injection, schedule: Q04DX003 (ip), vehicle: saline with Tween-80 154 % of control | dose: 11.0 mg/kg/injection, schedule: Q01DX009 (ip), vehicle: saline with Tween-80 150 % of control and 152 % of control | dose: 12.5 mg/kg/injection, schedule: Q04DX003 (ip), vehicle: saline with Tween-80 163 % of control | dose: 16.5 mg/kg/injection, schedule: Q01DX009 (ip), vehicle: saline with Tween-80 154 % of control and 157 % of control | [13] 152 % of control and 154 % of control and 163 % of control | dose: 25.0 mg/kg/injection, schedule: Q04DX003 (ip), vehicle: saline sonified 150 % of control | dose: 37.5 mg/kg/injection, schedule: Q01DX009 (ip), vehicle: saline with Tween-80 171 % of control and 177 % of control | [8] 200 % of control | dose: 50.0 mg/kg/injection, schedule: Q04DX003 (ip), vehicle: saline sonified 183 % of control

CN(C)c1ccc([N+]([O-])=Nc2ccc3ccccc3c2)cc1
inactive: dose: 30.0 mg/kg/injection, schedule: Q01DX005 (ip), vehicle: saline with Tween-80 96 % of control | [14] 87 % of control and 96 % of control | [15] 89 % of control | [16] 90 % of control

C=C1C(=O)O[C@@H]2/C=C(\C)CC/C=C(/COC(C)=O)C[C@@H](OC(C)=O)[C@@H]12
inactive: dose: 6.25 mg/kg/injection, schedule: Q01DX009 (ip), vehicle: saline with Tween-80 97 % of control | dose: 9.0 mg/kg/injection, schedule: Q01DX009 (ip), vehicle: acetone 106 % of control | dose: 12.5 mg/kg/injection, schedule: Q01DX009 (ip), vehicle: saline with Tween-80 103 % of control | dose: 18.0 mg/kg/injection, schedule: Q01DX009 (ip), vehicle: acetone 106 % of control | [13] 106 % of control | dose: 36.0 mg/kg/injection, schedule: Q01DX009 (ip), vehicle: acetone 109 % of control | dose: 72.0 mg/kg/injection, schedule: Q01DX009 (ip), vehicle: acetone 124 % of control

COc1cccc2c1S(=O)(=O)C(c1ccccc1)=CC2=O
inactive: dose: 60.0 mg/kg/injection, schedule: Q01DX005 (ip), vehicle: Klucel (hydroxypropylcellulose) (HPC) 105 % of control | dose: 120.0 mg/kg/injection, schedule: Q01DX005 (ip), vehicle: Klucel (hydroxypropylcellulose) (HPC) 105 % of control | dose: 240.0 mg/kg/injection, schedule: Q01DX005 (ip), vehicle: Klucel (hydroxypropylcellulose) (HPC) 120 % of control

Cc1cc2nc(CC(=O)c3ccncc3)c(CC(=O)c3ccncc3)nc2cc1C
inactive: [14] 106 % of control | [15] 91 % of control | [16] 91 % of control

Cc1ncc[nH]1
inactive: dose: 50.0 mg/kg/injection, schedule: Q01DX009 (ip), vehicle: saline 90 % of control | dose: 100.0 mg/kg/injection, schedule: Q01DX009 (ip), vehicle: saline 92 % of control | dose: 200.0 mg/kg/injection, schedule: Q01DX009 (ip), vehicle: saline 89 % of control

O=C1CCC(Cc2ccc(C(F)(F)F)cc2)C(=O)N1 (configuration not stated)
inactive: [14] 102 % of control | [15] 95 % of control | [16] 98 % of control

CCOC(=O)C1CSC2(CC(C)CC(C)(C)C2)N1 (configuration not stated)
inactive: dose: 50.0 mg/kg/injection, schedule: Q01DX005 (ip), vehicle: saline with Tween-80 106 % of control | [11] 107 % of control | [12] 104 % of control

CCCN(CCC)C(=O)Cn1cc([N+](=O)[O-])s/c1=N/C(=O)NCC
inactive: dose: 25.0 mg/kg/injection, schedule: Q01DX001 (ip), vehicle: saline with Tween-80 97 % of control | dose: 50.0 mg/kg/injection, schedule: Q01DX001 (ip), vehicle: saline with Tween-80 99 % of control | dose: 100.0 mg/kg/injection, schedule: Q01DX001 (ip), vehicle: saline with Tween-80 106 % of control

CCOc1c/c(=N\N=C(/C)c2ccc(Cl)cc2)n(C)c(=O)n1C
inactive: [1] 93 % of control | [2] 96 % of control | [3] 100 % of control

CC(=O)NC(Cc1c[nH]c2ccccc12)C(C)=O (configuration not stated)
inactive: [13] 89 % of control | [8] 91 % of control | [9] 106 % of control | [10] 97 % of control

Cc1ccc(NC(=O)Nc2sc(=S)c3c(c2C#N)CCCC3)c(C)c1
inactive: [8] 87 % of control | [9] 94 % of control | [10] 89 % of control
